4 molecules from patent US11364244B2, “Compositions for treatment of muscular disorders” (ONCOCROSS CO., LTD., priority 2018, dated 2022) can be followed below.

One data set relates to Mesenchymal stem cells. Description: Differentiation markers PAX7/MYF5 (Western blot) in stem cells isolated from cobratoxin-injured muscle. The class given is cell-based, mouse. The conditions noted are these: OC-501 10 μM, OC-504 5 μM, individually or in combination; 4 days after the application.
Data set [1] concerns mice transplanted with colorectal cancer cells CT26. Briefly: Cancer-associated muscle and fat reduction (CT26 transplant + 5-FU, MRI). The class given is in vivo, mouse. The conditions noted are these: for fat mass / muscle mass: CT26 + 5-FU mice, treated alone or in combination, MRI every week. The method, then: Cancer-associated sarcopenia was induced by administering 5-FU (5-fluorouracil) as an anticancer agent to mice transplanted with colorectal cancer cells CT26. […] MRI was measured every week to determine muscle and fat changes in OC-501 and 504 alone and combination-treated groups (FIG. 19).

The subject of data set [2] is Mouse myoblast strain C2C12. Briefly: Myoblast proliferation (MTT, OD 595 nm) under H2O2. The class given is cell-based. The conditions noted are these: single component 250 nM-20 μM, 400 nM H2O2, 16 hours.
Description: Mouse myoblast strain C2C12 was dispensed in 96-well plates at 1.5×10^3 cells/well, and then cultured in DMEM medium containing 10% fetal bovine serum (FBS) at 37° C. and 5% CO2 for one day at a low density manner. […] At 16 hours since the replacement, the wells were treated with MTT reagent and then the mouse myoblast strain C2C12 was incubated in the DMEM medium in a dark incubator for 3 hours. After removing supernatant therefrom and applying 100 μl of DMSO to the well, the optical density (OD) was measured at 595 nm. Cells were identified using a microscope.
In data set [3] the test system is tibialis anterior muscle of the mouse. Briefly: Early recovery of muscle fibers after cardiotoxin injury. The class given is in vivo. The conditions noted are these: alone 30 mpk, combination each 15 or 30 mpk, 3 days after cardiotoxin.
Data set [4] relates to Mouse myoblast strain C2C12. Description: Myoblast differentiation (microscope; Western blot of myogenin and MHC). As to conditions: for differentiation of myoblast (microscope): single component 500 nM up to 10 or 20 μM, 400 μM H2O2, 2% horse serum, 5 to 7 days. The class given is cell-based. The method, then:
Mouse myoblast strain C2C12 was dispensed into 12-well plates at 0.7×10^5 cells/well and then cultured to a cell density of 70 to 80%. […] Differentiation of the myoblast was induced for 5 to 7 days while the replacement of the medium occurred every other day. After the differentiation, cells were identified using a microscope (4× and 10× magnification), and cells were disrupted and then Western blot analysis was performed using differentiation markers myogenin and myosin heavy chain (MHC) antibodies.
(§1) Mouse myoblast strain C2C12 was dispensed into 12-well plates at 0.7×10^5 cells/well and then cultured to a cell density of 70 to 80%. The cells were then washed with PBS and then the medium was replaced with DMEM medium (differentiation medium) containing 2% horse serum, 400 μM H2O2, and harmol (OC-503) of 0 nM (DMSO), 500 nM, 1 μM, 2.5 μM, 5 μM, or 10 μM respectively. Differentiation of the myoblast was induced for 5 to 7 days while the replacement of the medium occurred every other day. After the differentiation, cells were identified using a microscope, and cells were disrupted, and then Western blot analysis was performed using differentiation markers myogenin and myosin heavy chain (MHC) antibodies.
as §1, with “H2O2, and calcium pantothenate (OC-504) of 0” for “H2O2, and harmol (OC-503) of 0”, “500 nM, 2.5 μM,” for “500 nM, 1 μM, 2.5 μM,”, “5 μM, 10 μM or 20” for “5 μM, or 10”, “μM or 20 μM respectively.” for “μM, or 10 μM respectively.”, “using a microscope (4× and 10× magnification), and cells” for “using a microscope, and cells”
Mouse myoblast strain C2C12 was dispensed into 12-well plates at 0.7×10^5 cells/well and then cultured to a cell density of 70 to 80%. […] Differentiation of the myoblast was induced for 5 to 7 days while the replacement of the medium occurred every other day. After the differentiation, cells were identified using a microscope (4× and 10× magnification), and cells were disrupted, and then Western blot analysis was performed using differentiation markers myogenin and myosin heavy chain (MHC) antibodies.

The mark [5] stands for this setting: anticancer drug administered to CT26-transplanted mice, MRI.

Description for Mesenchymal stem cells: Mesenchymal stem cells were isolated on day 3 after cobratoxin was inserted into the tibialis anterior muscle of the mouse. […] West blot analysis was performed using differentiation markers PAX7 (paired box protein-7) and MYF5 (Myogenic factor 5) antibodies. After the differentiation, cells were identified using a microscope (4× and 10× magnification).

In the case of `CC(C)(CO)[C@@H](O)C(=O)NCCC(=O)O` [calcium pantothenate], the “expression of PAX7” value with Mesenchymal stem cells is “increased”. In data set [1], the fat mass result was “increased” and the muscle mass entry is “increased”. Further, the myoblast proliferation entry in data set [2] is recorded as “not to promote myoblast proliferation”. Further, in data set [3], the muscle fiber size result is “well sparred”. In addition, in data set [4], the “differentiation of myoblast (microscope)” value was “promoted differentiation of myoblast”. In addition, the “differentiation promotion (Western blot myogenin and MHC)” value (“differentiation promotion” below) in data set [4] (single component at 5 μM) was “increased especially”. Further, the “differentiation promotion” value in data set [4] (single component at 10 μM) is given as “increased especially”.
As for harmol, the myoblast proliferation entry in data set [2] is on record as “not to promote myoblast proliferation”. Besides, the “differentiation of myoblast (microscope)” value in data set [4] was “promoted differentiation of myoblast”. Besides, the “differentiation promotion” value in data set [4] (single component at 5 μM) and in data set [4] (single component at 10 μM) was “increased especially” throughout.
In the case of `CN(C)CCOC(c1ccccc1)c1ccccc1.Cn1c(=O)c2[nH]c(Cl)nc2n(C)c1=O` [dimenhydrinate], in data set [1], the fat mass result is “increased” and the muscle mass entry was “increased”. In data set [3], the muscle fiber size result is reported as “well sparred”. The “differentiation promotion” value in data set [4] (single component at 5 μM) was “increased especially”.
Consider `O=c1[nH]cc(F)c(=O)[nH]1` [5-FU, 5-fluorouracil], for which, in data set [1] (setting [5]), the fat decrease was found to be 95% and the muscle amount decrease entry is given as “about 40%”.
